Laboratory results as given in US12552767B2, “3-heteroaryl pyrrolidine and piperidine orexin receptor agonists” (Merck Sharp & Dohme LLC, priority 2020, dated 2026).

Target: T1, human OX2R (Homo sapiens, UniProt O43614)
T1 construct: expressed in transfected cells; host or cells: CHO (Chinese hamster ovary) cells, grown under G418 selection
T1 sequence (O43614 1-444): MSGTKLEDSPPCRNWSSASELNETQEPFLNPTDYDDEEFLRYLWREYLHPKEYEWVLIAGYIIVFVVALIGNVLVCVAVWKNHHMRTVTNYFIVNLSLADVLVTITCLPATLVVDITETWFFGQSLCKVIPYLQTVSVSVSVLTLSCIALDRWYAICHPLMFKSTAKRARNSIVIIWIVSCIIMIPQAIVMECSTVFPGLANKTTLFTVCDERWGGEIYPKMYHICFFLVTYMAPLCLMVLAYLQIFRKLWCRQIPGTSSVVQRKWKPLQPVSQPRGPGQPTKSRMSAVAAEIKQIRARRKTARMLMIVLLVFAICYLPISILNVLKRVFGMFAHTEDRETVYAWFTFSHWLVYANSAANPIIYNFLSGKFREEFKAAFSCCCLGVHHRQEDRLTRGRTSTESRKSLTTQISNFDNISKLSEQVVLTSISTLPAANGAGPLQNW
Assay: IP-One (IPOne) orexin receptor agonist assay in CHO cells expressing human OX2R
Format: cell-based
Settings: for EC50: CHO cells expressing human OX2R, IP-One IP-1 detection, 2 hours incubation, four parameter logistic fit, read-out: OX2R Potency, EC50; for % of reference agonist maximal effect: human OX2R, percentage of sample raw value/mean max effect (reference compound at 1 uM with 100% activity)
Excerpt: The utility of the compounds in accordance with the present invention as orexin receptor OX1R and/or OX2R agonists may be readily determined without undue experimentation by methodology well known in the art. Both the OX1R and/or OX2R G-coupled protein receptors (GPCRs) couple through the Gαq signaling pathway, which ultimately promotes calcium mobilization via inositol triphosphate (IP3) production. The half-life of IP-3 is relatively short, being rapidly metabolized to inositol monophosphate (IP-1), which can be readily detected using a commercially available assay kit (IP-One; Cisbio; cat #621PAPEC) coupled with a cell line expressing the target receptor(s) of interest. The utility of the compounds in accordance with the present invention as orexin receptor OX1R and/or OX2R agonists may be determined utilizing this assay.
In a typical experiment, the OX1 and OX2 receptor agonist activity is determined in accordance with the following general experimental method. Chinese hamster ovary (CHO) cells expressing human OX1R and/or the human OX2R were grown in Iscove's modified DMEM containing glutaMAX™, 1% G418, 100 U/mL penicillin, 100 μg/mL streptomycin and 10% heat-inactivated qualified fetal bovine serum (FBS). The OX2R cells were seeded at 10,000 cells/well/50 μL and the OX1R cells were seeded at 20,000 cells/well/50 μL into 384-well white tissue culture plates (Greiner; cat #781080). All cell/media reagents were from GIBCO-Invitrogen Corp. The seeded cell plate(s) were incubated at 37° C. with 5% CO2 and 85% humidity for 20-24 hours. On the day of the assay, assay-ready compound plates were prepared using an acoustic liquid handler (ECHO; Labcyte), which dispensed sufficient volume of test compound stock (10 mM in DMSO) or 100% DMSO to prepare 10 point, ½-log dilutions in a final volume of 202.5 nL/well in all test wells of a 384-well diamond plate (Labcyte). Following completion of assay-ready plates, importantly, the next three steps were performed with minimal delay: 1) 20 μl of 1× stimulation buffer was added to the compound plate using a Multidrop Combi (small cassette, Thermo Fisher Scientific cat #24073290); 2) culture medium was removed from the cell plate using the Bluewasher plate washer (gentle spin; BlueCatBio); 3) 14 μl of compound/stimulation buffer mixture was added to the cell plate using a Bravo liquid handler (Agilent) prior to incubating cell plates at 37° C. with 5% CO2 and 85% humidity for 1 or 2 hours (OX1R and OX2R, respectively). During this incubation, IP-one detection reagents were prepared (38:1:1 lysis buffer:D2:AB-cryptate reagents). Six μL of mixed detection reagents were added to the cell plate using a Multidrop Combi (small cassette, Thermo Fisher Scientific cat #24073290) and incubated 60 minutes at room temperature in the dark. Fluorescence signal was detected using an Envision plate reader (Perkin Elmer) [LANCE/DELFIA Dual Enh (Em: APC 665; Ex: Cy5 620)].
For each compound, data were fit to a four parameter logistic fit (ActivityBase software) and the EC50 was reported as the inflection point of the resulting curve. Percent effect for each test compound was determined as the percentage of sample raw value/mean max effect, where the mean max effect was derived from the mean raw value of 32 control wells per assay plate (using Orexin A (cat #003-30) at 1 μM for human OX1R and a reference compound at 1 uM with 100% activity previously established by comparison to Orexin A for human OX2R). The intrinsic orexin receptor agonist activity of a compound which may be used in the present invention may be determined by these assays.

Compound	EC50	% of reference agonist maximal effect
CCNC(=O)N1CCC[C@H](c2n[nH]cc2C)[C@@H]1CO[C@H]1CC[C@@H](c2cccc(F)c2)CC1 (racemic) [Example 10, (CIS)-N-ethyl-2-((((CIS)-4-(3-fluorophenyl)cyclohexyl)oxy)methyl)-3-(4-methyl-1H-pyrazol-3-yl)piperidine-1-carboxamide]	4.8 nM	100.8%
COC(=O)N1CCC[C@H](c2n[nH]cc2Cl)[C@@H]1CO[C@H]1CC[C@@H](c2ccccc2Cl)CC1 (racemic) [Example 47, Methyl cis-3-(4-chloro-1H-pyrazol-3-yl)-2-((((CIS)-4-(2-chlorophenyl)cyclohexyl)oxy)methyl)piperidine-1-carboxylate]	357 nM	99.2%
COC(=O)N1CCC[C@H](c2n[nH]cc2Cl)[C@@H]1CO[C@H]1CC[C@@H](c2ccc(Cl)cc2)CC1 (racemic) [Example 48, Methyl cis-3-(4-chloro-1H-pyrazol-3-yl)-2-((((CIS)-4-(4-chlorophenyl)cyclohexyl)-oxy)methyl)piperidine-1-carboxylate]	922 nM	97.6%
CCNC(=O)N1CCC[C@H](c2ccn[nH]2)[C@@H]1COC1CCC(C(C)C)CC1 (relative stereo) [Example 3, (CIS)-N-ethyl-2-(((4-isopropylcyclohexyl)oxy)methyl)-3-(1H-pyrazol-5-yl)piperidine-1-carboxamide]	676 nM	99.9%
COC(=O)N1CCC[C@H](c2n[nH]cc2C)[C@@H]1COC1CCN(c2ncccn2)CC1 (relative stereo) [Example 6, Methyl (CIS)-3-(4-methyl-1H-pyrazol-3-yl)-2-(((1-(pyrimidin-2-yl)piperidin-4-yl)oxy)methyl)piperidine-1-carboxylate]	1270 nM	96.6%
COC(=O)N1CCC[C@H](c2n[nH]cc2C)[C@@H]1COC1CCN(c2ncc(F)cn2)CC1 (relative stereo) [Example 7, methyl (CIS)-2-(((1-(5-fluoropyrimidin-2-yl)piperidin-4-yl)oxy)methyl)-3-(4-methyl-1H-pyrazol-3-yl)piperidine-1-carboxylate]	1500 nM	95.7%
COC(=O)N1CCC[C@H](c2n[nH]cc2C)[C@@H]1COC1CCN(c2ccccc2)CC1 (relative stereo) [Example 8, Methyl (CIS)-3-(4-methyl-1H-pyrazol-3-yl)-2-(((1-phenylpiperidin-4-yl)oxy)methyl)piperidine-1-carboxylate]	5840 nM	80.9%
Cc1c[nH]nc1[C@H]1CCCN(C(=O)OC(C)C)[C@H]1COC1CCN(c2ncccn2)CC1 (relative stereo) [Example 9, Isopropyl (CIS)-3-(4-methyl-1H-pyrazol-3-yl)-2-(((1-(pyrimidin-2-yl)piperidin-4-yl)oxy)methyl)piperidine-1-carboxylate]	250 nM	100.7%
Cc1c[nH]nc1[C@@H]1CCCN(C(=O)C2CC2)[C@@H]1CO[C@H]1CC[C@@H](c2cccc(F)c2)CC1 (relative stereo) [Example 14]	65.5 nM	99.9%
Cc1c[nH]nc1[C@H]1CCCN(C(=O)OCC(F)F)[C@H]1CO[C@H]1CC[C@@H](c2cccc(F)c2)CC1 (relative stereo) [Example 16, 2,2-difluoroethyl (CIS)-2-((((CIS)-4-(3-fluorophenyl)cyclohexyl)oxy)methyl)-3-(4-methyl-1H-pyrazol-3-yl)piperidine-1-carboxylate]	126 nM	99.9%

The remaining lines, values ahead:

EC50	% of reference agonist maximal effect	Compound
1980 nM	94.8%	COC(=O)N1C[C@@H](C)C[C@H](c2ccn[nH]2)[C@@H]1CO[C@H]1CC[C@@H](c2ccccc2)CC1 (racemic) [Example 39, (+/−) methyl (2R,3S,5S)-5-methyl-2-((((CIS)-4-phenylcyclohexyl)oxy)methyl)-3-(1H-pyrazol-5-yl)piperidine-1-carboxylate]
1630 nM	95.8%	COC(=O)N1C[C@@H](C)C[C@@H](c2ccn[nH]2)[C@@H]1CO[C@H]1CC[C@@H](c2ccccc2)CC1 (racemic) [Example 40, (+/−) methyl (2R,3R,5S)-5-methyl-2-((((CIS)-4-phenylcyclohexyl)oxy)methyl)-3-(1H-pyrazol-5-yl)piperidine-1-carboxylate]
2360 nM	95.4%	COC(=O)N1C[C@H](C)C[C@H](c2ccn[nH]2)[C@@H]1CO[C@H]1CC[C@@H](c2ccccc2)CC1 (racemic) [Example 41, (+/−) methyl (2R,3S,5R)-5-methyl-2-((((CIS)-4-phenylcyclohexyl)oxy)methyl)-3-(1H-pyrazol-5-yl)piperidine-1-carboxylate]
15.1 nM	101.9%	COC(=O)N1CCC[C@H](c2nc(O)sc2C)[C@@H]1CO[C@H]1CC[C@@H](c2ccccc2)CC1 (relative stereo) [Example 2, Methyl (CIS)-3-(2-hydroxy-5-methylthiazol-4-yl)-2-((((CIS)-4-phenylcyclohexyl)oxy)-methyl)piperidine-1-carboxylate]
117 nM	99.3%	COC(=O)N1CCC[C@H](c2n[nH]cc2C)[C@@H]1CO[C@H]1CC[C@@H](c2cccc(F)c2)CC1 (relative stereo) [Example 15, methyl (CIS)-2-((((CIS)-4-(3-fluorophenyl)cyclohexyl)oxy)methyl)-3-(4-methyl-1H-pyrazol-3-yl)piperidine-1-carboxylate]
2100 nM	79.9%	COC(=O)N1CCC[C@H](c2cc[nH]n2)[C@@H]1CO[C@H]1CC[C@@H](c2ccccc2)CC1 (relative stereo) [Example 21, methyl (CIS)-2-((((CIS)-4-phenylcyclohexyl)oxy)methyl)-3-(1H-pyrazol-3-yl)piperidine-1-carboxylate]
6000 nM	83.7%	CCNC(=O)N1CCC[C@H](c2ccnn2C)[C@@H]1CO[C@H]1CC[C@@H](c2ccccc2)CC1 (relative stereo) [Example 22, (CIS)-N-ethyl-3-(1-methyl-1H-pyrazol-5-yl)-2-((((CIS)-4-phenylcyclohexyl)oxy)methyl)piperidine-1-carboxamide]
211 nM	98.6%	COC(=O)N1CCC[C@H](c2[nH]ncc2C)[C@@H]1CO[C@H]1CC[C@@H](c2ccccc2)CC1 (relative stereo) [Example 23, methyl (CIS)-3-(4-methyl-1H-pyrazol-5-yl)-2-((((CIS)-4-phenylcyclohexyl)oxy)methyl)piperidine-1-carboxylate]
